Reference: US7462472B2 (priority 2001, dated 2008)

Assays:
CaM = CaM (Homo sapiens, UniProt P0DP23, T111C/T35C); experiment: biochemical; assay type: binding
[1] = biological target: CaM34/110-AEDANS/DAB, human CaM mutant [change]/[change] labeled with donor and acceptor (human) (UniProt P0DP23); experiment: fluorescence (FRET) titration of donor-acceptor labeled CaM34/110 with CyaA1-412

Chain of CyaA1-412, adenylyl cyclase domain (amino acids 1-412) of CyaA (J7QLC0 1-412): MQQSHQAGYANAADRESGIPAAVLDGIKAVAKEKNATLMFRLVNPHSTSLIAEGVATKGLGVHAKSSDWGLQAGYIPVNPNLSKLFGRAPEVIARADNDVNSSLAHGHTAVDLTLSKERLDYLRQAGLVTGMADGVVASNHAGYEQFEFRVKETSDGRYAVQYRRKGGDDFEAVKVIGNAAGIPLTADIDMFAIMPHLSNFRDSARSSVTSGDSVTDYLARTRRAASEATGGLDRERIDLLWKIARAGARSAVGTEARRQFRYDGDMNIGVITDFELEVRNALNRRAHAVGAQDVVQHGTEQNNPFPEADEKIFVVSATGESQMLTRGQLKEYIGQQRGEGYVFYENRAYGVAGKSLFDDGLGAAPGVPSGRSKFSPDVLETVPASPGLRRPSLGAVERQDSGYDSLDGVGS

| Compound | Kd (CaM) [µM] | Kd [1] [µM] |
| --- | --- | --- |
| CC[C@H](C)[C@H](NC(=O)CNC(=O)[C@H](Cc1ccc(O)cc1)NC(=O)[C@H](CCCCN)NC(=O)[C@@H](NC(=O)[C@H](CC(C)C)NC(=O)[C@H](CC(C)C)NC(=O)[C@H](CC(N)=O)NC(=O)[C@@H](NC(=O)[C@@H](NC(=O)CNC(=O)[C@H](CCCCN)NC(=O)[C@H](CCC(N)=O)NC(=O)[C@H](CCCCN)NC(=O)[C@H](CCC(=O)O)NC(=O)[C@H](CC(C)C)NC(=O)[C@H](CO)NC(=O)[C@@H](N)CC(N)=O)C(C)C)[C@@H](C)O)[C@@H](C)CC)C(=O)N[C@@H](CCC(=O)O)C(=O)O [helix H peptide] | 8.8 | – |
| CyaA1-412, adenylyl cyclase domain (amino acids 1-412) of CyaA (from UniProt J7QLC0 1-412) (enzyme) | – | 10 |
